Where a SMILES comes first, the peptide text is derived from it.
How the values were obtained:
[1] = Initial pH screening of the composition; format: physicochemical; conditions: for I pH (initial pH), 0.10%: nitrogen compound 0.10 wt/vol % with 1.0 wt/vol % α methyl-D glucoside in medium; for I pH (initial pH), 0.50%: nitrogen compound 0.50 wt/vol % with 1.0 wt/vol % α methyl-D glucoside in medium; for I pH (initial pH), 1.00%: nitrogen compound 1.00 wt/vol % with 1.0 wt/vol % α methyl-D glucoside in medium
Excerpt: Each composition in Table 1 went through initial screening measures of solubility and initial pH (“I pH”). […] When a specific concentration of a nitrogen containing compound was insoluble, the initial and final pH (“F pH”) of the combined composition was not measured and accordingly are each marked as “NM.” Additionally, initial pH of the composition was checked as a screening measure. The initial pH was marked as either Low (“L”), High (“H”), or Pass (“P”). A Low initial pH corresponds to an initial pH being less than 5.5, a High initial pH corresponds to an initial pH being greater than 6.5, and a Pass initial pH corresponds to the pH being at or between 5.5-6.5. […] As part of the Therapeutic Effect Protocol, a final pH was also measured after the compositions that were tested against the Lactobacillus and E. coli.
(§1) All of the ingredients in Table 2 were combined and the pH was adjusted to 6.5. […] To evaluate the effect of various nitrogen containing therapeutic agents on the growth of bacteria, the LAPT-g media, prepared as described above, was supplemented with various nitrogen containing compound therapeutic agents to a final test concentration between 0.1 and 1.0%. As initial screening measures, solubility and initial pH of each composition were checked. If a specific composition was insoluble (as detected by visual indication of precipitates or turbidity), then no further therapeutic efficacy testing was undertaken on that composition. Additionally, if the initial pH of the composition was below 5.5 (“Low”) or was above 6.5 (“High”), then no further therapeutic efficacy testing was undertaken on that composition.

L. crispatus and E. coli = assay: Therapeutic Effect Protocol: L. crispatus / E. coli co-culture, ratio after 36 hours; format: cell-based, Lactobacillus crispatus; E. coli; conditions: for Therapeutic Efficacy Results (Lactobacillus/E. coli) 0.10%: nitrogen compound 0.10 wt/vol % with 1.0 wt/vol % α methyl-D glucoside (10:1); for Therapeutic Efficacy Results (Lactobacillus/E. coli) 0.10% / Therapeutic Efficacy Results (Lactobacillus/E. coli) 0.50% / Therapeutic Efficacy Results (Lactobacillus/E. coli) 1.00%: 36 hours anaerobic co-culture, 37° C.; for Therapeutic Efficacy Results (Lactobacillus/E. coli) 0.50%: nitrogen compound 0.50 wt/vol % with 1.0 wt/vol % α methyl-D glucoside (2:1); for Therapeutic Efficacy Results (Lactobacillus/E. coli) 1.00%: nitrogen compound 1.00 wt/vol % with 1.0 wt/vol % α methyl-D glucoside (1:1); for Therapeutic effect when ratio α methyl-D glucoside : nitrogen compound is at least about 2:1, but not at 1:1: ratio at least about 2:1, not 1:1; for Therapeutic effect at ratio 2:1 and 10:1, but not at 1:1: ratios 2:1 and 10:1, not 1:1; for Therapeutic effect of other saccharides: saccharide other than α methyl-D glucoside, by itself or with a nitrogen containing compound
Description: As used herein the term “therapeutic effect” refers to the ability of the compositions and formulations of the present invention to stimulate the growth of Lactobacillus relative E. coli measured according to the Therapeutic Effect Protocol described below. Generally, therapeutic effect is expressed as a ratio of Lactobacillus to E. coli and is desirably greater than about 2, more preferably greater than about 20 and more desirably greater than about 100.
The data in Table 1 was tested according to the Therapeutic Effect Protocol as described further herein. The nitrogen compounds were tested for their therapeutic efficacy at three different concentrations when combined with α methyl-D glucoside (1% wt/vol %). The concentrations of the nitrogen containing compounds that were tested were 1% wt/vol %, 0.5% wt/vol %, and 0.1% wt/vol %.
Colonies of L. crispatus and E. coli were prepared as follows. A colony of L. crispatus was transferred to 7 ml de Man, Rogosa & Sharpe (MRS) broth and incubated anaerobically (using BD GasPak EZ anaerobe container system with indicator) at 37° C. without shaking for 18-20 hours. A colony of E. coli was transferred to 5 ml Tryptic Soy Broth (TSB) and incubated aerobically (shaking at 100 rpm) at 37° C. for 18-20 hours.
Colonies were then inoculated as follows. Bacterial cultures were gently vortexed and 1 mL of each culture was transferred to a corresponding 2.0 mL micro-centrifuge tube and then centrifuged for two minutes at 14,500 rpm. The cultural supernatant was removed and the cell pellet was re-suspended in 1 mL of 0.95% (wt/vol %) saline. […] For L. crispatus, the pellet was re-suspended in 1 mL of 0.95% saline to achieve ˜10^7-10^8 cfu/mL. For E. coli, the pellet was re-suspended in 1 mL of 0.95% saline to achieve ˜10^8-10^9 cfu/mL.
Media were prepared as follows.
as §1
Five milliliters (5 mL) of each medium was transferred to a test tube in duplicates for subsequent inoculation. A master mixture of L. crispatus and E. coli, prepared as described above, was prepared in 1,000:1 ratio. Each (5 ml) test tube was inoculated with the master mixture to give 10^5-10^6 total CFU L. crispatus and 100-1,000 total CFU E. coli per tube.
To establish a negative control, one tube was vortexed and 100 μL was removed to determine the initial cell concentrations by serial dilutions and plating (2 plates per dilution). L. crispatus is selected on MRS agar plates incubated anaerobically at 37° C. for two days. E. coli is selected on TSA plates incubated aerobically at 37° C. for one day. The co-cultures were incubated in an anaerobic container with BD GasPaks at 37° C. for 36 hours.
The effect of the α methyl-D glucoside and the nitrogen containing compound therapeutic agents on the ratio of L. crispatus to E. coli was measured 36 hours after inoculation and a final pH of the test solutions was recorded. The co-culture tube was vortexed and 100 μL was removed to determine the final cell concentrations by serial dilutions and plating (2 plates per dilution). L. crispatus is selected on MRS agar plates incubated anaerobically at 37° C. for two days.

| Compound | I pH (initial pH), 0.10% [1] | I pH (initial pH), 0.50% [1] | I pH (initial pH), 1.00% [1] | Therapeutic Efficacy Results (Lactobacillus/E. coli) 0.10% (L. crispatus and E. coli) | Therapeutic Efficacy Results (Lactobacillus/E. coli) 0.50% (L. crispatus and E. coli) | Therapeutic Efficacy Results (Lactobacillus/E. coli) 1.00% (L. crispatus and E. coli) | other results |
| --- | --- | --- | --- | --- | --- | --- | --- |
| CCC(N)C(=O)O (racemic) [DL-a-amino-n-butyric acid] | P (a Pass initial pH corresponds to the pH being at or between 5.5-6.5) | P (a Pass initial pH corresponds to the pH being at or between 5.5-6.5) | P (a Pass initial pH corresponds to the pH being at or between 5.5-6.5) | 0.34 | 100 | 4.44 | Therapeutic effect when ratio α methyl-D glucoside : nitrogen compound is less than 2:1 (1:1) (L. crispatus and E. coli; with α methyl-D glucoside, ratio 1:1): provided a therapeutic effect; Therapeutic effect when ratio α methyl-D glucoside : nitrogen compound is at least about 2:1, but not at 1:1 (L. crispatus and E. coli; with α methyl-D glucoside): provided a therapeutic effect |
| C[C@H](N)C(=O)N[C@@H](CC(=O)O)C(=O)O [Ala-Asp] (H-Ala-Asp-OH) | P (a Pass initial pH corresponds to the pH being at or between 5.5-6.5) | L (A Low initial pH corresponds to an initial pH being less than 5.5) | L (A Low initial pH corresponds to an initial pH being less than 5.5) | >100 |  |  | Therapeutic effect when ratio α methyl-D glucoside : nitrogen compound is at least about 2:1, but not at 1:1 (L. crispatus and E. coli; with α methyl-D glucoside): provided a therapeutic effect |
| C[C@H](N)C(=O)N[C@@H](CCC(=O)O)C(=O)O [Ala-Glu] (H-Ala-Glu-OH) | P (a Pass initial pH corresponds to the pH being at or between 5.5-6.5) | L (A Low initial pH corresponds to an initial pH being less than 5.5) | L (A Low initial pH corresponds to an initial pH being less than 5.5) | 10.67 |  |  | Therapeutic effect when ratio α methyl-D glucoside : nitrogen compound is at least about 2:1, but not at 1:1 (L. crispatus and E. coli; with α methyl-D glucoside): provided a therapeutic effect |
| C[C@H](N)C(=O)N[C@@H](Cc1cnc[nH]1)C(=O)O [Ala-His] (H-Ala-His-OH) | P (a Pass initial pH corresponds to the pH being at or between 5.5-6.5) | P (a Pass initial pH corresponds to the pH being at or between 5.5-6.5) | H (a High initial pH corresponds to an initial pH being greater than 6.5) | >133 | 6.59E+02 |  | Therapeutic effect when ratio α methyl-D glucoside : nitrogen compound is at least about 2:1, but not at 1:1 (L. crispatus and E. coli; with α methyl-D glucoside): provided a therapeutic effect; Therapeutic effect at ratio 2:1 and 10:1, but not at 1:1 (L. crispatus and E. coli; with α methyl-D glucoside): provided a therapeutic effect |
| O=C1NC(=O)C(=O)C(=O)N1 [Alloxan] | P (a Pass initial pH corresponds to the pH being at or between 5.5-6.5) | P (a Pass initial pH corresponds to the pH being at or between 5.5-6.5) | L (A Low initial pH corresponds to an initial pH being less than 5.5) | 4.83 | 1.45E+04 |  | Therapeutic effect when ratio α methyl-D glucoside : nitrogen compound is at least about 2:1, but not at 1:1 (L. crispatus and E. coli; with α methyl-D glucoside): provided a therapeutic effect; Therapeutic effect at ratio 2:1 and 10:1, but not at 1:1 (L. crispatus and E. coli; with α methyl-D glucoside): provided a therapeutic effect |
| N.O.O.O.O.O=P([O-])(O)O.[Na+] [Ammonium Sodium Phosphate] |  |  |  | 0.25 |  |  |  |
| Nc1ccn([C@@H]2O[C@H](CO)[C@@H](O)[C@H]2O)c(=O)n1 [Cytidine] |  |  |  | >103 | 3.85E+03 | 3.09 |  |
| N=C(N)NCCC[C@@H](N)C(=O)O [D-Arginine] |  |  |  | 0.35 |  |  |  |
| N[C@H](CO)C(=O)O [D-Serine] |  |  |  | 0.06 | <1.00 | 0.03 |  |
| O=C[C@@H](O)[C@H](O)[C@H](O)CO [D-arabinose] |  |  |  |  |  |  | Therapeutic effect of other saccharides (L. crispatus and E. coli): not able to provide a therapeutic effect |
| NCCCC(=O)O [DL-gamma-amino-n-butyric acid] |  |  |  | 0.836 | 246.6 | 1.86 |  |
| NCC(=O)O [Glycine] |  |  |  | 0.56 | 20.5 | 950 |  |
| NCCc1c[nH]cn1 [Histamine] | H (a High initial pH corresponds to an initial pH being greater than 6.5) | H (a High initial pH corresponds to an initial pH being greater than 6.5) | H (a High initial pH corresponds to an initial pH being greater than 6.5) |  |  |  |  |
| N=C(N)NCCC[C@H](N)C(=O)O [L-Arginine] |  |  |  | 0.58 |  |  |  |
| N[C@@H](CC(=O)O)C(=O)O [L-Aspartic Acid] |  |  |  | 1.36 |  |  |  |
| N[C@@H](CCC(=O)O)C(=O)O [L-Glutamic Acid] |  |  |  | 2.81 |  |  |  |
| O=C(O)[C@@H]1CCCN1 [L-Proline] |  |  |  | 1.88 | 0.55 | 1.25 |  |
| CCCCCN [N-Amylamine] | H (a High initial pH corresponds to an initial pH being greater than 6.5) | H (a High initial pH corresponds to an initial pH being greater than 6.5) | H (a High initial pH corresponds to an initial pH being greater than 6.5) |  |  |  |  |
| O=C(O)CC[C@@H](C(=O)O)N1C(=O)c2ccccc2C1=O [n-phthaloyl-l-glutamic acid] | L (A Low initial pH corresponds to an initial pH being less than 5.5) | L (A Low initial pH corresponds to an initial pH being less than 5.5) | L (A Low initial pH corresponds to an initial pH being less than 5.5) |  |  |  |  |
| OC[C@H]1O[C@H](OC[C@H]2O[C@H](OC[C@H]3O[C@H](O[C@]4(CO)O[C@H](CO)[C@@H](O)[C@@H]4O)[C@H](O)[C@@H](O)[C@@H]3O)[C@H](O)[C@@H](O)[C@H]2O)[C@H](O)[C@@H](O)[C@H]1O [stachyose] |  |  |  |  |  |  | Therapeutic effect of other saccharides (L. crispatus and E. coli): not able to provide a therapeutic effect |
| Ammonium Citrate |  |  |  | >260 | 4.93E−04 | 3.15E−08 |  |

From patent publication US12029748B2, “Synergistic composition for maintenance of healthy balance of microflora” (KIMBERLY-CLARK WORLDWIDE, INC., priority 2017, dated 2024)
